Data reported in patent publication US7094752B2 (Chiron Corporation, priority 1997, dated 2006).
Read-outs that look alike come from different tables or passages of the source. Marks after values point to notes of the source that are not given here. Square brackets hold non-standard residues; d marks the D form. Peptide text beside a SMILES is read from it. 1Nal = N[C@@H](Cc1cccc2ccccc12)C(=O)O; 2Nal = N[C@@H](Cc1ccc2ccccc2c1)C(=O)O

Key:
soluble uPAR [1] = molecular target: T1, soluble uPAR (Homo sapiens, UniProt Q03405); type: binding; design: sUPAR, soluble truncated form of the urokinase receptor; made in house; host or cells: baculovirus-infected Sf9 insect cells; settings: for % Inhibition 2.5 uM: 2500.0; for % Inhibition 5 uM: 5000.0
Description: Streptavidin, 100 μl (0.1 mg/ml) in 50 mM Na2CO3, pH 9.6, was added to MaxiSorp wells (Nunc), incubated overnight at 4 C, and then washed with PBS/BSA. Biotinylated sUPAR (25 nM in PBS/BSA) was added to the wells and incubated for 2 hours at room temperature prior to washing. Competitive peptide inhibitors were added to the wells immediately prior to addition of the bacteriophage. The wells were incubated for one hour at room temperature, then washed and bound bacteriophage eluted with 6M urea in 0.1N HCl, pH 2.5. After 15 minutes, the urea eluate was brought to neutral pH by addition of 2M Tris base and the bacteriophage titers of input stocks and elutions measured by plaque formation assay. Results were expressed as the percent of input bacteriophage which bind to the wells. Alternatively, the amount of bacteriophage was determined in an ELISA where phage were preincubated with HRP-conjugated anti-M13 antibody for 30 minutes at room temperature before dispensing into wells prepared as above and incubated for one hour at room temperature. The final anti-M13 conjugate dilution was 1:4000. After washing, TMB substrate (100 μl/well) was added and color development was stopped with 0.8N H2SO4 (100 μl/well). The absorbance at 450 nm was then measured in a 96 well plate reader.
In a uPAR binding assay, the following analogs were tested in a competition with phage displaying either peptide 25 or peptide 9. The analogs comprise both natural and unnatural amino acids.
The analogs were tested in an assay utilizing soluble uPAR, similar to the method described in Example 2. The analogs were tested for their ability to compete with phage displaying either peptide 9 or peptide 25. Analogs 3–61 were tested in competition with peptide 25. Analogs 62–96 were tested in competition with peptide 9. Approximately 10^8 plaque forming units of the phage were used in the assay.
The analogs were tested at a concentration at 40 μM in the uPAR competition assay with phage displaying peptide 25. The results below show which analogs were active.
Analogs 31–61 were tested for their ability to compete with phage displaying peptide 25. The active analogs were tested further at two concentrations, 5 μM and 2.5 μM. These concentrations were calculated based on the synthesis reactions. However, the sequences * were further tested and determined to contain high amounts of amino acids and the quantity tested could have been higher than 5 μM or 2.5 μM.

soluble uPAR [2] = molecular target: T1, soluble uPAR; settings: for % Inhibition 2.5 uM: 2500.0; for % Inhibition 5 uM: 5000.0; for receptor binding activity, alanine scan of peptide 9: compared to peptide 9
Description: The analogs were tested for their ability to compete with phage displaying either peptide 9 or peptide 25. […] Approximately 10^8 plaque forming units of the phage were used in the assay.

T1 sequence (Q03405 23-305 limits assumed): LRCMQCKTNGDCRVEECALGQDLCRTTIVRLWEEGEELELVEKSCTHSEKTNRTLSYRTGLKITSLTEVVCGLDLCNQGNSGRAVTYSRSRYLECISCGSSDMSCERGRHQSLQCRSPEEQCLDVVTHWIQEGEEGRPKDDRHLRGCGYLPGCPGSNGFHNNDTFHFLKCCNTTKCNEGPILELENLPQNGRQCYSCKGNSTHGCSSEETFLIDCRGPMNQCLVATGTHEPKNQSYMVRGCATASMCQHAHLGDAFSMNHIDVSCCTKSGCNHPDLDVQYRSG

Compound | % Inhibition 2.5 uM (soluble uPAR [2]) | % Inhibition 5 uM (soluble uPAR [2]) | receptor binding activity, alanine scan of peptide 9 (soluble uPAR [2]) | also measured
CSCC[C@H](NC(=O)[C@H](Cc1ccc(O)cc1)NC(=O)CNC(=O)[C@H](CC(C)C)NC(=O)[C@H](CO)NC(=O)[C@H](CC(C)C)NC(=O)[C@H](Cc1c[nH]cn1)NC(=O)[C@H](Cc1c[nH]cn1)NC(=O)[C@H](Cc1cccc2ccccc12)NC(=O)[C@@H](NC(=O)[C@H](CO)NC(=O)[C@H](CCC(=O)O)NC(=O)[C@H](C)N)[C@@H](C)O)C(=O)N[C@@H](Cc1ccc(O)cc1)C(=O)N[C@H](C(=O)N[C@@H](CC(C)C)C(=O)N[C@@H](CC(N)=O)C(N)=O)[C@@H](C)O [Analog 35, AESTXHHLSLGYMYTLN] (H-AEST[1Nal]HHLSLGYMYTLN-NH2) | – | – | – | % Inhibition 2.5 uM (soluble uPAR [1]): 70%; % Inhibition 5 uM (soluble uPAR [1]): 94%
CSCC[C@H](NC(=O)[C@H](Cc1ccc(O)cc1)NC(=O)CNC(=O)[C@H](CC(C)C)NC(=O)[C@H](CO)NC(=O)[C@H](CC(C)C)NC(=O)[C@H](Cc1c[nH]cn1)NC(=O)[C@H](Cc1c[nH]cn1)NC(=O)[C@H](Cc1ccc2ccccc2c1)NC(=O)[C@@H](NC(=O)[C@H](CO)NC(=O)[C@H](CCC(=O)O)NC(=O)[C@H](C)N)[C@@H](C)O)C(=O)N[C@@H](Cc1ccc(O)cc1)C(=O)N[C@H](C(=O)N[C@@H](CC(C)C)C(=O)N[C@@H](CC(N)=O)C(N)=O)[C@@H](C)O [Analog 36] (H-AEST[2Nal]HHLSLGYMYTLN-NH2) | – | – | – | % Inhibition 2.5 uM (soluble uPAR [1]): 61%; % Inhibition 5 uM (soluble uPAR [1]): 78%
CC(C)C[C@H](NC(=O)[C@H](CCCCN)NC(=O)[C@H](Cc1ccccc1)NC(=O)[C@H](Cc1ccccc1)NC(=O)[C@H](CCC(=O)O)NC(=O)[C@H](C)N)C(=O)NCC(=O)N1CCC[C@H]1C(=O)N[C@@H](CC(N)=O)C(=O)N[C@H](CO)C(=O)N[C@@H](Cc1ccc(O)cc1)C(=O)N[C@H](C(=O)N[C@@H](Cc1ccc(O)cc1)C(=O)N[C@@H](CC(C)C)C(=O)N[C@@H](Cc1c[nH]cn1)C(=O)N[C@@H](CO)C(=O)N[C@@H](C)C(N)=O)C(C)C [Analog 80] (H-AEFFKLGPN[dS]YVYLHSA-NH2) | 89% | 95% | – | –
CC(C)C[C@H](NC(=O)[C@H](CCCCN)NC(=O)[C@H](Cc1ccccc1)NC(=O)[C@H](Cc1ccccc1)NC(=O)[C@H](CCC(=O)O)NC(=O)[C@H](C)N)C(=O)NCC(=O)N1CCC[C@H]1C(=O)N[C@@H](CC(N)=O)C(=O)N[C@H](C)C(=O)N[C@@H](Cc1ccc(O)cc1)C(=O)N[C@H](C(=O)N[C@@H](Cc1ccc(O)cc1)C(=O)N[C@@H](CC(C)C)C(=O)N[C@@H](Cc1c[nH]cn1)C(=O)N[C@@H](CO)C(=O)N[C@@H](C)C(N)=O)C(C)C [Analog 81] (H-AEFFKLGPN[dA]YVYLHSA-NH2) | 79% | 80% | – | –
AAFFKLGPNGYVYLHSA [Analog 65] | – | – | decreased but did not destroy | –
AEFAKLGPNGYVYLHSA [Analog 67] | – | – | decreased but did not destroy | –
AEFFKAGPNGYVYLHSA [Analog 69] | – | – | destroyed receptor binding activity | –
AEFFKLGPNGAVYLHSA [Analog 74] | – | – | destroyed receptor binding activity | –
AEFFKLGPNGYAYLHSA [Analog 75] | – | – | destroyed receptor binding activity | –
AEFFKLGPNGYVALHSA [Analog 76] | – | – | destroyed receptor binding activity | –
AEFFKLGPNGYVYAHSA [Analog 77] | – | – | decreased but did not destroy | –

The next lines start with results.

% Inhibition 2.5 uM (soluble uPAR [2]) | % Inhibition 5 uM (soluble uPAR [2]) | receptor binding activity, alanine scan of peptide 9 (soluble uPAR [2]) | Compound | also measured
24* % | 41% | – | CC(C)C[C@H](NC(=O)[C@H](CCCCN)NC(=O)[C@H](Cc1ccccc1)NC(=O)[C@H](Cc1ccccc1)NC(=O)[C@H](CCC(=O)O)NC(=O)[C@@H](C)N)C(=O)NCC(=O)N1CCC[C@H]1C(=O)N[C@@H](CC(N)=O)C(=O)NCC(=O)N[C@@H](Cc1ccc(O)cc1)C(=O)N[C@H](C(=O)N[C@@H](Cc1ccc(O)cc1)C(=O)N[C@@H](CC(C)C)C(=O)N[C@@H](Cc1c[nH]cn1)C(=O)N[C@@H](CO)C(=O)N[C@@H](C)C(N)=O)C(C)C [Analog 82] (H-[dA]EFFKLGPNGYVYLHSA-NH2) | –
44% | 59% | – | CC(C)C[C@H](NC(=O)[C@H](CCCCN)NC(=O)[C@H](Cc1ccccc1)NC(=O)[C@H](Cc1ccccc1)NC(=O)[C@@H](CCC(=O)O)NC(=O)[C@H](C)N)C(=O)NCC(=O)N1CCC[C@H]1C(=O)N[C@@H](CC(N)=O)C(=O)NCC(=O)N[C@@H](Cc1ccc(O)cc1)C(=O)N[C@H](C(=O)N[C@@H](Cc1ccc(O)cc1)C(=O)N[C@@H](CC(C)C)C(=O)N[C@@H](Cc1c[nH]cn1)C(=O)N[C@@H](CO)C(=O)N[C@@H](C)C(N)=O)C(C)C [Analog 83] (H-A[dE]FFKLGPNGYVYLHSA-NH2) | –
80* % | 76% | – | CC(C)C[C@H](NC(=O)[C@H](CCCCN)NC(=O)[C@H](Cc1ccccc1)NC(=O)[C@H](Cc1ccccc1)NC(=O)[C@H](CCC(=O)O)NC(=O)[C@H](C)N)C(=O)NCC(=O)N1CCC[C@@H]1C(=O)N[C@@H](CC(N)=O)C(=O)NCC(=O)N[C@@H](Cc1ccc(O)cc1)C(=O)N[C@H](C(=O)N[C@@H](Cc1ccc(O)cc1)C(=O)N[C@@H](CC(C)C)C(=O)N[C@@H](Cc1c[nH]cn1)C(=O)N[C@@H](CO)C(=O)N[C@@H](C)C(N)=O)C(C)C [Analog 88] (H-AEFFKLG[dP]NGYVYLHSA-NH2) | –
15% | 13% | – | CC(C)C[C@H](NC(=O)[C@H](CCCCN)NC(=O)[C@H](Cc1ccccc1)NC(=O)[C@H](Cc1ccccc1)NC(=O)[C@H](CCC(=O)O)NC(=O)[C@H](C)N)C(=O)NCC(=O)N1CCC[C@H]1C(=O)N[C@H](CC(N)=O)C(=O)NCC(=O)N[C@@H](Cc1ccc(O)cc1)C(=O)N[C@H](C(=O)N[C@@H](Cc1ccc(O)cc1)C(=O)N[C@@H](CC(C)C)C(=O)N[C@@H](Cc1c[nH]cn1)C(=O)N[C@@H](CO)C(=O)N[C@@H](C)C(N)=O)C(C)C [Analog 89] (H-AEFFKLGP[dN]GYVYLHSA-NH2) | –
8.5% | 3.3% | – | CC(C)C[C@H](NC(=O)[C@H](CCCCN)NC(=O)[C@H](Cc1ccccc1)NC(=O)[C@H](Cc1ccccc1)NC(=O)[C@H](CCC(=O)O)NC(=O)[C@H](C)N)C(=O)NCC(=O)N1CCC[C@H]1C(=O)N[C@@H](CC(N)=O)C(=O)NCC(=O)N[C@@H](Cc1ccc(O)cc1)C(=O)N[C@H](C(=O)N[C@H](Cc1ccc(O)cc1)C(=O)N[C@@H](CC(C)C)C(=O)N[C@@H](Cc1c[nH]cn1)C(=O)N[C@@H](CO)C(=O)N[C@@H](C)C(N)=O)C(C)C [Analog 92] (H-AEFFKLGPNGYV[dY]LHSA-NH2) | –
36% | 41% | – | CC(C)C[C@H](NC(=O)[C@H](CCCCN)NC(=O)[C@H](Cc1ccccc1)NC(=O)[C@H](Cc1ccccc1)NC(=O)[C@H](CCC(=O)O)NC(=O)[C@H](C)N)C(=O)NCC(=O)N1CCC[C@H]1C(=O)N[C@@H](CC(N)=O)C(=O)NCC(=O)N[C@@H](Cc1ccc(O)cc1)C(=O)N[C@H](C(=O)N[C@@H](Cc1ccc(O)cc1)C(=O)N[C@@H](CC(C)C)C(=O)N[C@H](Cc1c[nH]cn1)C(=O)N[C@@H](CO)C(=O)N[C@@H](C)C(N)=O)C(C)C [Analog 94] (H-AEFFKLGPNGYVYL[dH]SA-NH2) | –
47% | 59% | – | CC(C)C[C@H](NC(=O)[C@H](CCCCN)NC(=O)[C@H](Cc1ccccc1)NC(=O)[C@H](Cc1ccccc1)NC(=O)[C@H](CCC(=O)O)NC(=O)[C@H](C)N)C(=O)NCC(=O)N1CCC[C@H]1C(=O)N[C@@H](CC(N)=O)C(=O)NCC(=O)N[C@@H](Cc1ccc(O)cc1)C(=O)N[C@H](C(=O)N[C@@H](Cc1ccc(O)cc1)C(=O)N[C@@H](CC(C)C)C(=O)N[C@@H](Cc1c[nH]cn1)C(=O)N[C@H](CO)C(=O)N[C@@H](C)C(N)=O)C(C)C [Analog 95] (H-AEFFKLGPNGYVYLH[dS]A-NH2) | –
38* % | 40% | – | CC(C)C[C@H](NC(=O)[C@H](CCCCN)NC(=O)[C@H](Cc1ccccc1)NC(=O)[C@H](Cc1ccccc1)NC(=O)[C@H](CCC(=O)O)NC(=O)[C@H](C)N)C(=O)NCC(=O)N1CCC[C@H]1C(=O)N[C@@H](CC(N)=O)C(=O)NCC(=O)N[C@@H](Cc1ccc(O)cc1)C(=O)N[C@H](C(=O)N[C@@H](Cc1ccc(O)cc1)C(=O)N[C@@H](CC(C)C)C(=O)N[C@@H](Cc1c[nH]cn1)C(=O)N[C@@H](CO)C(=O)N[C@H](C)C(N)=O)C(C)C [Analog 96] (H-AEFFKLGPNGYVYLHS[dA]-NH2) | –
